# System: ECHOR = Echinochloa crus-galli P.B. var. oryzoides (VAS.) OHWI (early watergrass)
# Experiment: In-water applied herbicidal activity in transplanted paddy rice
# Assay type: in vivo
# Settings: 21 DAA
# Protocol: Rice seeds were planted in Sun Gro MetroMix 306 planting mixture, which typically has a pH of 6.0 to 6.8 and an organic matter content of about 30 percent, in plastic plug trays. Seedlings at the second or third leaf stage of growth were transplanted into 650 mL of mud contained in 960 mL non-perforated plastic pots with a surface area of 86.59 cm^2 four days prior to herbicide application. The paddy was created by filling the 2.5 to 3 cm headspace of the pots with water. When required to ensure good germination and healthy plants, a fungicide treatment and/or other chemical or physical treatment was applied. The plants were grown for 4-14 d in a greenhouse with an approximate 14-h photoperiod which was maintained at about 29° C. during the day and 26° C. during the night. Nutrients were added as Osmocote (17:6:10, Nitrogen:Phosphorus:Potassium (N:P:K)+minor nutrients) at 2 grams (g) per cup. Water was added on a regular basis to maintain the paddy flood, and supplemental lighting was provided with overhead metal halide 1000-Watt lamps as necessary. The plants were employed for testing when they reached the second or third true leaf stage. Treatments consisted of compounds 45, 34, and 66. For technical grade compounds, a weighed amount, determined by the highest rate to be tested, was placed in an individual 120 mL glass vial and was dissolved in 20 mL of acetone to obtain concentrated stock solutions. […] The concentrated stock solutions obtained were diluted with 20 mL of an aqueous mixture containing 2.5% Agri-dex crop oil concentrate (v/v). Applications were made by injecting an appropriate amount of the stock solution into the aqueous layer of the paddy. Control plants were treated in the same manner with the solvent blank. All treated plant material received the same concentration of acetone and crop oil concentrate. The treated plants and control plants were placed in a greenhouse as described above and water was added as needed to maintain a paddy flood. After approximately 3 weeks, the condition of the test plants, compared with that of the untreated plants, was determined visually and scored on a scale of 0 to 100 percent where 0 corresponds to no injury and 100 corresponds to complete kill. By applying the well-accepted probit analysis as described by J. Berkson in Journal of the […], 48, 565 (1953) and by D. Finney in “Probit Analysis” Cambridge University Press (1952) or by plotting the mean data and fitting a logarithmic curve to the portion of the data where there was a dose response using Microsoft Excel®, the above data can be used to calculate GR50 and GR90 values, which are defined as growth reduction factors that correspond to the effective dose of herbicide required to kill or control 50 percent or 90 percent, respectively, of a target plant.
structure (smiles),measurement,setting,value
"COc1c(C(=O)OCc2ccccc2)nc(-c2ccc(Cl)c(OC)c2F)c(F)c1N [Compound 66, benzyl 4-amino-6-(4-chloro-2-fluoro-3-methoxyphenyl)-5-fluoro-3-methoxypicolinate]",Mean Visual Injury (%)-21 Days After Application ECHOR,2.19 g ae/ha,0%
same,Mean Visual Injury (%)-21 Days After Application ECHOR,4.38 g ae/ha,0%
same,Mean Visual Injury (%)-21 Days After Application ECHOR,8.75 g ae/ha,8%
same,Mean Visual Injury (%)-21 Days After Application ECHOR,17.5 g ae/ha,21%
same,Mean Visual Injury (%)-21 Days After Application ECHOR,35 g ae/ha,89%
same,Mean Visual Injury (%)-21 Days After Application ECHOR,70 g ae/ha,95%
same,GR50 ECHOR,dose to kill or control 50 percent,21.2 g ae/ha
same,GR90 ECHOR,dose to kill or control 90 percent,59.0 g ae/ha
